ChEMBL document CHEMBL1143380, “N-[6-amino-2-(heteroaryl)pyrimidin-4-yl]acetamides as A2A receptor antagonists with improved drug like properties and in vivo efficacy” (J Med Chem, 2009)
≈ marks a conversion by molar mass, not a printed value.

Assays:
[1] = Tmax in rat at 10 mg/kg, po; assay type: ADME, organism-based; set-up: dose 10 mg/kg, route oral; settings: in vivo
Adenosine receptor A2a [2] = target: T1, Adenosine receptor A2a (Homo sapiens, UniProt P29274); test: Displacement of [3H]ZM241385 from human adenosine A2A receptor expressed in HEK293 cells; assay type: cell-based
Adenosine receptor A2a [3] = target: T1, Adenosine receptor A2a; test: Antagonist activity at human adenosine A2A receptor assessed as inhibition of CGS-21680-stimulated cAMP production; assay type: functional
Adenosine receptor A1 = target: T2, Adenosine receptor A1 (Homo sapiens, UniProt P30542); test: Displacement of [3H]DPCPX from human adenosine A1 receptor expressed in HEK293 cells; assay type: cell-based
T2 sequence (P30542 whole entry): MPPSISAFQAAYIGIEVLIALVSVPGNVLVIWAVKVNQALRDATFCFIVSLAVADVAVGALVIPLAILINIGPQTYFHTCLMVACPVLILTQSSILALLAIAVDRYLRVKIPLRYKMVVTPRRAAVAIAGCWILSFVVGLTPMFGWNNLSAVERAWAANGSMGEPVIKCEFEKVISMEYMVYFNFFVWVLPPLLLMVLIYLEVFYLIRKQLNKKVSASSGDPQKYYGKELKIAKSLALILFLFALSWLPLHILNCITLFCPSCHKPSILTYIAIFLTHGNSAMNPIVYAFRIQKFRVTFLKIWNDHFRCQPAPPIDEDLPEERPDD

[4] = Lipophilicity, log D of the compound; assay type: physicochemical; settings: octanol/water
[5] = Solubility at pH 7.4; assay type: physicochemical; settings: buffer
Adenosine receptor A2a [6] = target: Adenosine receptor A2a (Rattus norvegicus, UniProt P30543); test: Displacement of [3H]ZM241385 from rat adenosine A2A receptor expressed in CHO cells; assay type: cell-based
Cytochrome P450 3A4 = Cytochrome P450 3A4 (Homo sapiens, UniProt P08684); test: Inhibition of CYP3A4; assay type: ADME
Cytochrome P450 2D6 = Cytochrome P450 2D6 (Homo sapiens, UniProt P10635); test: Inhibition of CYP2D6; assay type: ADME
Cytochrome P450 2C9 = Cytochrome P450 2C9 (Homo sapiens, UniProt P11712); test: Inhibition of CYP2C9; assay type: ADME
Cytochrome P450 2C19 = Cytochrome P450 2C19 (Homo sapiens, UniProt P33261); test: Inhibition of CYP2C19; assay type: ADME
Cytochrome P450 1A2 = target: T3, Cytochrome P450 1A2 (Homo sapiens, UniProt P05177); test: Inhibition of CYP1A2; assay type: ADME
T3 sequence (P05177 whole entry): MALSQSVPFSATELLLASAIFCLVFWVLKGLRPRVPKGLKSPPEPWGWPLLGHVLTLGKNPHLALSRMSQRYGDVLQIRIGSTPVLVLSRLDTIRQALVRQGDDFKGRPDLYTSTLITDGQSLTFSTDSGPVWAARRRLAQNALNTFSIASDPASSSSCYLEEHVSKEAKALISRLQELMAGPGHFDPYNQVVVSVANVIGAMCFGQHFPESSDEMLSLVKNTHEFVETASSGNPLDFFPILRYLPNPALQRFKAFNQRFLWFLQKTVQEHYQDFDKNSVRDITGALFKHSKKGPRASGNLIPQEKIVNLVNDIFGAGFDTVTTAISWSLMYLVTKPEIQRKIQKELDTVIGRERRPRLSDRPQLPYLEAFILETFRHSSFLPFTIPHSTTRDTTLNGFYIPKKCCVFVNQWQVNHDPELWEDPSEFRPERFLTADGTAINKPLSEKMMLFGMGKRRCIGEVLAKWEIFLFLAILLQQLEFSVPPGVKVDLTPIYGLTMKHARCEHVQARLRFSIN

[7] = Permeability across human Caco-2 cells; assay type: ADME, cell-based; settings: read-out: permeability
Caco-2 = test: Ratio of permeability from apical to basolateral side over basolateral to apical side in human Caco-2 cells; assay type: ADME, cell-based
hERG (KCNH2) = hERG (KCNH2) (Homo sapiens, UniProt Q12809); test: Inhibition of human ERG at 10 uM by patch clamp technique
[8] = Drug level in rat brain at 10 mg/kg, po after 1 hr; assay type: ADME, organism-based; set-up: dose 10 mg/kg, route oral; settings: read-out: Drug uptake
[9] = Drug level in rat brain at 10 mg/kg, po after 4 hrs; assay type: ADME, organism-based; set-up: dose 10 mg/kg, route oral; settings: read-out: Drug uptake
[10] = Plasma concentration in rat at 10 mg/kg, po after 1 hr; assay type: ADME, organism-based; set-up: dose 10 mg/kg, route oral
[11] = Plasma concentration in rat at 10 mg/kg, po after 4 hrs; assay type: ADME, organism-based; set-up: dose 10 mg/kg, route oral
[12] = Ratio of drug level in brain to plasma in rat at 10 mg/kg, po after 1 hr; assay type: ADME, organism-based; set-up: dose 10 mg/kg, route oral; settings: brain and plasma, read-out: BPR
[13] = Ratio of drug level in brain to plasma in rat at 10 mg/kg, po after 4 hrs; assay type: ADME, organism-based; set-up: dose 10 mg/kg, route oral; settings: brain and plasma, read-out: BPR
Rattus norvegicus [14] = test: Inhibition of haloperidol-induced catalepsy in rat assessed as reduction in descent latency at 10 mg/kg, po after 2 hrs; assay type: organism-based; set-up: dose 10 mg/kg, route oral; settings: in vivo
Rattus norvegicus [15] = test: Inhibition of haloperidol-induced catalepsy in rat assessed as reduction in descent latency at 30 mg/kg, po after 2 hrs; assay type: organism-based; set-up: dose 30 mg/kg, route oral; settings: in vivo
Rattus norvegicus [16] = test: Potentiation of […]-induced rotational behavior in unilateral 6-hydroxydopamine lesioned po dosed rat after 5 hrs; assay type: ADME, organism-based; settings: in vivo
Adenosine receptor A2b = target: T4, Adenosine receptor A2b (Homo sapiens, UniProt P29275); test: Inhibition of human adenosine A2B receptor
T4 sequence (P29275 whole entry): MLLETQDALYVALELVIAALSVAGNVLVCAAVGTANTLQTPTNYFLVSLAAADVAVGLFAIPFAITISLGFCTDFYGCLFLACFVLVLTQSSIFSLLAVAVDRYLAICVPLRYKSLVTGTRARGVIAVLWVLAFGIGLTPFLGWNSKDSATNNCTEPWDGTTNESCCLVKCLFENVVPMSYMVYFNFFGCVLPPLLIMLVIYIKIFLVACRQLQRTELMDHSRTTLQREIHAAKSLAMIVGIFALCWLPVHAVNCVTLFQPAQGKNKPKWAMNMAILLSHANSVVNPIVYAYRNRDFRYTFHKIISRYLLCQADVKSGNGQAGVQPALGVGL

Adenosine receptor A3 = target: T5, Adenosine receptor A3 (Homo sapiens, UniProt P0DMS8); test: Inhibition of human adenosine A3 receptor
T5 sequence (P0DMS8 whole entry): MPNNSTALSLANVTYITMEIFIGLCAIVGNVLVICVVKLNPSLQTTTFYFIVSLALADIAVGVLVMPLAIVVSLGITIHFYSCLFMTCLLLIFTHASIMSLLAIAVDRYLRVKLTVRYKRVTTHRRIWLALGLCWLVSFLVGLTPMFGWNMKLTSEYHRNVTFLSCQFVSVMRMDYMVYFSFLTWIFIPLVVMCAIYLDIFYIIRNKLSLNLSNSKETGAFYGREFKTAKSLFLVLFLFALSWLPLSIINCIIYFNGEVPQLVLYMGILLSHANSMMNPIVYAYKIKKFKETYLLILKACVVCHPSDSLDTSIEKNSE

[17] = Plasma concentration in rat at 3 mg/kg, po after 2 hrs; assay type: ADME, organism-based; set-up: dose 3 mg/kg, route oral
[18] = Plasma concentration in rat at 10 mg/kg, po after 2 hrs; assay type: ADME, organism-based; set-up: dose 10 mg/kg, route oral
[19] = Plasma concentration in rat at 30 mg/kg, po after 2 hrs; assay type: ADME, organism-based; set-up: dose 30 mg/kg, route oral
[20] = Drug level in rat brain at 3 mg/kg, po after 2 hrs; assay type: ADME, organism-based; set-up: dose 3 mg/kg, route oral; settings: read-out: Drug uptake
[21] = Drug level in rat brain at 10 mg/kg, po after 2 hrs; assay type: ADME, organism-based; set-up: dose 10 mg/kg, route oral; settings: read-out: Drug uptake
[22] = Drug level in rat brain at 30 mg/kg, po after 2 hrs; assay type: ADME, organism-based; set-up: dose 30 mg/kg, route oral; settings: read-out: Drug uptake
[23] = Ratio of drug level in brain to plasma in rat at 3 mg/kg, po after 2 hrs; assay type: ADME, organism-based; set-up: dose 3 mg/kg, route oral; settings: brain and plasma
[24] = Ratio of drug level in brain to plasma in rat at 10 mg/kg, po after 2 hrs; assay type: ADME, organism-based; set-up: dose 10 mg/kg, route oral; settings: brain and plasma
[25] = Ratio of drug level in brain to plasma in rat at 30 mg/kg, po after 2 hrs; assay type: ADME, organism-based; set-up: dose 30 mg/kg, route oral; settings: brain and plasma

T1 sequence (P29274 whole entry): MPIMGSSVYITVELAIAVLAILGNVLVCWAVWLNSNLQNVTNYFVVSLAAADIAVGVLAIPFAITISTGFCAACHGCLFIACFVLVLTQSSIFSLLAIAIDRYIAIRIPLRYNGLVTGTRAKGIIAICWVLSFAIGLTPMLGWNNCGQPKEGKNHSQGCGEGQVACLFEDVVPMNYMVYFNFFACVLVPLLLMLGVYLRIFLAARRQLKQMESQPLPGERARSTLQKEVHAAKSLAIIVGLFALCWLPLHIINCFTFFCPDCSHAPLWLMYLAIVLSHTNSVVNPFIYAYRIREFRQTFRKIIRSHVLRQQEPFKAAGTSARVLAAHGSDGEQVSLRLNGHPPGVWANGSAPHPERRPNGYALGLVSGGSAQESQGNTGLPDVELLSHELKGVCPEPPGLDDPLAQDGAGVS
Cytochrome P450 2C9, sequence (P11712 whole entry): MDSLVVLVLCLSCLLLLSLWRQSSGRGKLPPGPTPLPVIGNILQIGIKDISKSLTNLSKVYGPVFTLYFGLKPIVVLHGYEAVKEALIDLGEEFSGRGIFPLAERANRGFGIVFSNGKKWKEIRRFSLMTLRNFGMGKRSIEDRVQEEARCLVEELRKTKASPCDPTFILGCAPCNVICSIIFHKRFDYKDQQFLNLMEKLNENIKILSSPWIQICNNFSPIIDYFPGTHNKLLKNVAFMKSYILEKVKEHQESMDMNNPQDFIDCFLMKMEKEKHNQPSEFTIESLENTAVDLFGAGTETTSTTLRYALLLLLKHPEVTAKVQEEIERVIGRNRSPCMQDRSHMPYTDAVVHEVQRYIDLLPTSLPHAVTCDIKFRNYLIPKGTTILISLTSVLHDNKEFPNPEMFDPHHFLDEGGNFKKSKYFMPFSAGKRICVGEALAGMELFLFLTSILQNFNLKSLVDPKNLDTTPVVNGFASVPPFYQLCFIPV
Cytochrome P450 3A4, sequence (P08684 whole entry): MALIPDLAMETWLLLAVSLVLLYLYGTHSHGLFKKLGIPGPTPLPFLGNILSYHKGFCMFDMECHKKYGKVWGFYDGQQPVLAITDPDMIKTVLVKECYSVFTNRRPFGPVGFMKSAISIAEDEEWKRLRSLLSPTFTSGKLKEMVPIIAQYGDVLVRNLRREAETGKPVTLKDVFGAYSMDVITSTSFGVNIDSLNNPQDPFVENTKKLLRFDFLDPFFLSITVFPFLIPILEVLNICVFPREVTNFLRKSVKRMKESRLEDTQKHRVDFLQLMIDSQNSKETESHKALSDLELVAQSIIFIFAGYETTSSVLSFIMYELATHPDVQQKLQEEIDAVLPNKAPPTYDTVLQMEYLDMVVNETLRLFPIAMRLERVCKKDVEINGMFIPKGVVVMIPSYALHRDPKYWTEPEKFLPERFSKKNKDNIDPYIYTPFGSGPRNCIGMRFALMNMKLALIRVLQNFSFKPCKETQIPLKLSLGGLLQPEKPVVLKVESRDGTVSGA
Adenosine receptor A2a (Rattus norvegicus, UniProt P30543), sequence (P30543 whole entry): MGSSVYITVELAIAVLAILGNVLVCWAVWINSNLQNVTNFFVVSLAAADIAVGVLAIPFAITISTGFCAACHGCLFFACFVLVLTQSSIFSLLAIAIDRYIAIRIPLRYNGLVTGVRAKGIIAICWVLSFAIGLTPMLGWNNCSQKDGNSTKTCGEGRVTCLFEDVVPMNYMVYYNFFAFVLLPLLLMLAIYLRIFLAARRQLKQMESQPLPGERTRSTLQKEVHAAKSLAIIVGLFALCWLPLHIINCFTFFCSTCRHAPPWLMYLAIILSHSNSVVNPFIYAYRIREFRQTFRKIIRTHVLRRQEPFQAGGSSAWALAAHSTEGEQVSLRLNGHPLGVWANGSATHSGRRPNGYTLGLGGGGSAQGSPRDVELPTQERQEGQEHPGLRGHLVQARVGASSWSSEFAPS
hERG (KCNH2), sequence (Q12809 whole entry): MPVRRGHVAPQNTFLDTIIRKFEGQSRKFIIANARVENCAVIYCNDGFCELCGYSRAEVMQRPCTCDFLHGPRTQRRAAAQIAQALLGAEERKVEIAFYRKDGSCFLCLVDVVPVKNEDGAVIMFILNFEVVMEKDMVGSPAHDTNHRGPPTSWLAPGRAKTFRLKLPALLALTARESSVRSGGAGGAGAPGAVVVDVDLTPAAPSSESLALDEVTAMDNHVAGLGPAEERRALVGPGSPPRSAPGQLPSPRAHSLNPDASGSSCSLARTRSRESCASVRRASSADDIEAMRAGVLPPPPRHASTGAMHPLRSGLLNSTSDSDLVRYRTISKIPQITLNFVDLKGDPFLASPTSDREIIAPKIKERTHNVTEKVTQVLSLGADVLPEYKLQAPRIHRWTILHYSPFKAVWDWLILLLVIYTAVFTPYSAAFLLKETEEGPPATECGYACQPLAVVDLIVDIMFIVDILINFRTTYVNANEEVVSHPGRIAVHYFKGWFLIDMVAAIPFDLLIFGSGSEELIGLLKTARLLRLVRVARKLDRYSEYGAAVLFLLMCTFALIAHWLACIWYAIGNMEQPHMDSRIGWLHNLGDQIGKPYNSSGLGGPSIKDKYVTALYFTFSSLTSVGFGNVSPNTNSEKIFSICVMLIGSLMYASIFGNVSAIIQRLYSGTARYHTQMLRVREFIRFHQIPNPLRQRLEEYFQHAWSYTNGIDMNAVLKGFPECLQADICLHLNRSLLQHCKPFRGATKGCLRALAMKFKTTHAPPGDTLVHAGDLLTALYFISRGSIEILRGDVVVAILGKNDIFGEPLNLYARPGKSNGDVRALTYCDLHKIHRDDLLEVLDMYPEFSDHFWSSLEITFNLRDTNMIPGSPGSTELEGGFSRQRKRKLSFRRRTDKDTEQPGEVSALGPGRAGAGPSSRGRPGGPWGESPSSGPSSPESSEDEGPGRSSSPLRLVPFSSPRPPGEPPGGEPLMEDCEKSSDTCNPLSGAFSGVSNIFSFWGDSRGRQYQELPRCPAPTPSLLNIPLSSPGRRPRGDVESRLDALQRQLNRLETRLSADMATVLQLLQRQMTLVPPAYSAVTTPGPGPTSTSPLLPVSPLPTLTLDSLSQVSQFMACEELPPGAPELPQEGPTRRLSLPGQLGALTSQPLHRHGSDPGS
Cytochrome P450 2C19, sequence (P33261 whole entry): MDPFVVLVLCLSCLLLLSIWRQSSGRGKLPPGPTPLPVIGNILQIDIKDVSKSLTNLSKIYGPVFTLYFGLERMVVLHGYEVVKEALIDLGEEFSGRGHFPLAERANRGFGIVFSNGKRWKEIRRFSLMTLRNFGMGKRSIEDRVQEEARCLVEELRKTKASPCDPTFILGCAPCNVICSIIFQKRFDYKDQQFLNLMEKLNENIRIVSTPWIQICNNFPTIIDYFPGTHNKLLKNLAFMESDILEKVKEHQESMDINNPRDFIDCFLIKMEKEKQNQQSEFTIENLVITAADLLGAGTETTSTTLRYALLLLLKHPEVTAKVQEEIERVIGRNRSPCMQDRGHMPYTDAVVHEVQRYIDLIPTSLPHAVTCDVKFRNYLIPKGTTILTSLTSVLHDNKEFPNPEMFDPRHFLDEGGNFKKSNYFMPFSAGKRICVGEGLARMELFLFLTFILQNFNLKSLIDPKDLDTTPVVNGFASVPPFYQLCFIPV
Cytochrome P450 2D6, sequence (P10635 whole entry): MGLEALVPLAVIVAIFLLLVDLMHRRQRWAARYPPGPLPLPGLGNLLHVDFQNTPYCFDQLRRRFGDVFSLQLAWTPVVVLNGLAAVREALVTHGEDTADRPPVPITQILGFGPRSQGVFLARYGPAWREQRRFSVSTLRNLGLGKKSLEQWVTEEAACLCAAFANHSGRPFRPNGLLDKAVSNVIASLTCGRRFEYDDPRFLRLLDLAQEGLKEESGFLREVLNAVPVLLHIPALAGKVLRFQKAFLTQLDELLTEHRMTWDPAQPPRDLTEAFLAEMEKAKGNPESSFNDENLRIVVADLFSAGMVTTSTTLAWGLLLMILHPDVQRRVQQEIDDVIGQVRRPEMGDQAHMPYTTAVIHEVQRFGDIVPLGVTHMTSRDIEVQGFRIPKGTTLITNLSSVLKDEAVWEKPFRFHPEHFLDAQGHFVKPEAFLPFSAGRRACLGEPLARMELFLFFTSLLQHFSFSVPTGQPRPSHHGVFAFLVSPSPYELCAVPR

- Tmax [1]: 54 min
- Ki (Adenosine receptor A2a [2]): 0.0047 µM
- IC50 (Adenosine receptor A2a [3]): 0.085 µM
- Ki (Adenosine receptor A1): 0.162 µM
- logD [4]: 2.2
- solubility [5]: 1 mg/mL (≈ 2900 µM)
- Ki (Adenosine receptor A2a [6]): 0.048 µM
- IC50 (Cytochrome P450 3A4): > 50 µM
- IC50 (Cytochrome P450 2D6): > 50 µM
- IC50 (Cytochrome P450 2C9): > 50 µM
- IC50 (Cytochrome P450 2C19): > 50 µM
- IC50 (Cytochrome P450 1A2): 11 µM
- Papp [7]: 700 nm/s
- Ratio (Caco-2): 0.7
- concentration at 1 h [8]: 863 ng/g
- concentration at 4 h [9]: 116 ng/g
- concentration at 1 h [10]: 1.6 µg/mL
- concentration at 4 h [11]: 0.333 µg/mL
- Kp at 1 h [12]: 0.51
- Kp at 4 h [13]: 0.33
- Activity (Rattus norvegicus [16]): Dose-dependent effect
- Ki (Adenosine receptor A2b): 0.145 µM
- Ki (Adenosine receptor A3): 0.019 µM
- concentration at 2 h [17]: 0.098 µg/mL
- concentration at 2 h [18]: 1.06 µg/mL
- concentration at 2 h [19]: 4.64 µg/mL
- concentration at 2 h [20]: 34 ng/g
- concentration at 2 h [21]: 488 ng/g
- concentration at 2 h [22]: 2020 ng/g
- Kp at 2 h [23]: 0.37
- Kp at 2 h [24]: 0.46
- Kp at 2 h [25]: 0.45
SMILES: COC[C@H]1CCCN1c1cc(NC(C)=O)nc(-n2nc(C)cc2C)n1
- inhibition at 10 µM (hERG (KCNH2)): 19%
- Activity (Rattus norvegicus [14]): Active
- Activity (Rattus norvegicus [15]): Active
